≈ marks a conversion by molar mass, not a printed value.
Experiments:
[1] = Achievable dissolution concentrations of individual components in 60% TBA cosolvent without NaCl; assay type: physicochemical; settings: 60% TBA without NaCl; for Measured Concentration (mg/ml) AVG: average of 3, room temperature; for Measured Concentration (mg/ml) 1: replicate 1; for Measured Concentration (mg/ml) 2: replicate 2; for Measured Concentration (mg/ml) 3: replicate 3
[2] = Individual component solubility in t-butanol/water solutions (HPLC); settings: about 37° C.
Protocol: Aliquots of each lipid and peptide were accurately weighed into 1.5 ml Eppendorf tubes. […] To each tube 0.2 ml of solvent was added. Each tube was vortexed and then bath sonicated for several minutes to facilitate dissolution. Samples were then placed in a 37° C. bath for approximately 30 minutes and then removed and placed on the counter for up to 30 minutes. […] Three independent Eppendorf tubes were prepared and tested for each solute-solvent combination. Visual observations were made of each tube as to whether they appeared a) clear (i.e., apparently fully soluble), b) to contain non-dissolved material, or c) indeterminate. Small aliquots of each tube were then taken, diluted in the HPLC running buffer, and analyzed by HPLC. HPLC was performed using a CIS column by established methods.

| Compound | Measured Concentration (mg/ml) AVG [1] [mg/mL] | Measured Concentration (mg/ml) 1 [1] [mg/mL] | Measured Concentration (mg/ml) 2 [1] [mg/mL] | Measured Concentration (mg/ml) 3 [1] [mg/mL] | Solubility (mg/ml) 50% ([2]; 50% t-butanol/water) [mg/mL] | Solubility (mg/ml) 80% ([2]; 80% t-butanol/water) [mg/mL] | Solubility (mg/ml) 90% ([2]; 90% t-butanol/water) [mg/mL] | Solubility (mg/ml) 95% ([2]; 95% t-butanol/water) [mg/mL] | Solubility (mg/ml) 97.5% ([2]; 97.5% t-butanol/water) [mg/mL] | Solubility (mg/ml) 99% ([2]; 99% t-butanol/water) [mg/mL] | Solubility (mg/ml) 100% ([2]; 100% t-butanol) [mg/mL] |
| --- | --- | --- | --- | --- | --- | --- | --- | --- | --- | --- | --- |
| CCCCCCCCCCCCCCCC(=O)OC[C@H](COP(=O)([O-])OCC[N+](C)(C)C)OC(=O)CCCCCCCCCCCCCCC [DPPC, dipalmitoyl phosphatidylcholine] | 35.0 | 34.8 | 35.0 | 35.2 |  |  |  |  |  |  |  |
| CCCCCCCC/C=C\CCCCCCCC(=O)O[C@H](COC(=O)CCCCCCCCCCCCCCC)COP(=O)(O)OCC(O)CO (stereo partly drawn) [POPG, palmitoyloleoyl phosphatidylglycerol] | 290.9 | 298.4 | 283.7 | 290.6 | >47 | >119 | >160 | 34 (≈ 45.4 mM) | 20 (≈ 26.7 mM) | <5 | <5 |
